Reference: patent publication US20230226092A1, “CANCER […] ON G[…]” (NuCana plc, priority 2015, published 2023)

System: advance progressive cancers that are refractory to, or have relapsed on, all conventional therapies
Assay: ProGem1 dose escalation clinical study: clinical response (RECIST 1.1, tumour markers)
Assay type: in vivo, human
Parameters: CA125 level / CA19.9 / CEA / CA125 / Tumour volume / CA 15.3 tumour marker / inhibin B: unit not given here
Excerpt: The following data were generated in clinical studies of NUC-1031 in human patients with advance progressive cancers that are refractory to, or have relapsed on, all conventional therapies that have been used to date. The results clearly illustrate the ability of NUC-1031 to successfully treat refractory cancers.
Although the primary objectives of the dose escalation part of the study were to determine the Recommended Phase II Dose (RP2D) and safety profile, secondary objectives included determining the PK profile, however effective treatment of patients with a range of refractory cancers has also been observed as part of this study.
A total of 68 patients have been entered into this dose escalation study, of which 49 were evaluable for clinical response in that they have received at least 2 Cycles of NUC-1031 and were therefore eligible for a RECIST 1.1 assessment.
NUC-1031 was administered as a 5 to 30 minute intravenous slow bolus injection. • Schedule A: NUC-1031 was administered on days 1, 8, 15 of a 4 weekly Cycle. • Schedule B: NUC-1031 was administered on days 1, 5, 8, 12, 15, 19, of a 4 weekly Cycle.
Evaluable patients were patients that received ≥ 2 Cycles of NUC-1031 and were therefore eligible for a RECIST 1.1 assessment at the end of Cycle 2. Where the disease response duration, measured in months, is followed by a “+” this indicates ongoing disease control as of the latest cut-off date.

[1] = Patient 004, breast cancer, 500 mg/m^2 weekly
[2] = Patient 005, ovarian cancer, 500 mg/m^2 weekly
[3] = Patient 006, cholangiocarcinoma, 375 mg/m^2 twice weekly, then 500 mg/m^2 weekly
[4] = Patient 008, cancer of unknown primary, 375 mg/m^2 twice weekly
[5] = Patient 010, endometrial cancer
[6] = Patient 015, cancer of unknown primary, ongoing
[7] = Patient 021, fallopian tube cancer
[8] = Patient 025, mesothelioma, 725 mg/m^2 weekly
[9] = Patient 026, colorectal cancer, 725 mg/m^2 weekly
[10] = Patient 029, breast cancer, 725 mg/m^2 weekly
[11] = Patient 030, ovarian cancer, 725 mg/m^2 weekly
[12] = Patient 032, oesophageal cancer, 750 mg/m^2 weekly
[13] = Patient 033, cholangiocarcinoma, 750 mg/m^2 weekly

## gemcitabine-[phenyl-benzoxy-L-alaninyl)]-phosphate [NUC-1031]
[1]
  Disease response duration: 12 months
  Response to RECIST: Stable Disease
Patient 004, breast cancer, after Cycle 7
  Remained stable with no further treatment: 5 months
[2]
  Disease response duration: 15 months
  Response to RECIST: Stable Disease
Patient 005, ovarian cancer, after 12 months of treatment
  Time to relapse after stopping treatment: 3 months
Patient 005, ovarian cancer, end of Cycle 6, from 208 at start of study
  CA125 level: 140
Patient 006, cholangiocarcinoma
  CT scan finding: reduction in metastatic lung lesion and lymph node from baseline
[3]
  Disease response duration: 3 months
  Response to RECIST: Stable Disease
Patient 006, cholangiocarcinoma, after two doses, from 125,002
  CA19.9: 59,285
Patient 007, colorectal cancer
  Disease response duration: 3 months
Patient 007, colorectal cancer, 375 mg/m^2 twice weekly, then 500 mg/m^2 weekly
  Response to RECIST: Stable Disease
Patient 007, colorectal cancer, from 361
  CEA: 286
Patient 007, colorectal cancer, from 3,151
  CA19.9: 2,957
[4]
  Disease response duration: 3 months
  Response to RECIST: Stable Disease
Patient 008, cancer of unknown primary, Cycle 1
  Symptomatic benefit: symptomatic relief on treatment and a general improvement in mood and wellbeing
[5]
  Disease response duration: 9 months
  Stable Disease maintained after stopping NUC-1031: 3 months
Patient 010, endometrial cancer, 750 mg/m^2 weekly, then 500 mg/m^2
  Response to RECIST: Stable Disease
Patient 010, endometrial cancer, from 727
  CA125: 488
Patient 011, uterine carcinosarcoma
  Disease response duration: 4 months
Patient 011, uterine carcinosarcoma, 375 mg/m^2 twice weekly
  Reduction in tumour volume: 26%
Patient 011, uterine carcinosarcoma, 375 mg/m^2 twice weekly, then 625 mg/m^2 weekly
  Response to RECIST: Stable Disease
Patient 012, cholangiocarcinoma
  Disease response duration: 8 months
Patient 012, cholangiocarcinoma, 375 mg/m^2 twice weekly, then 625 mg/m^2 weekly
  Response to RECIST: Stable Disease
Patient 013, cervical cancer
  Disease response duration: 9 months
  PFS: 11 months
Patient 013, cervical cancer, 750, then 625, then 500 mg/m^2 weekly
  Response to RECIST: Partial Response
Patient 013, cervical cancer, lower pelvic pain
  Symptomatic benefit: relief of this pain on treatment, with significant reduction of opioid usage
Patient 014, mesothelioma, 750, then 625 mg/m^2 weekly
  Response to RECIST: Progressive Disease
Patient 015, cancer of unknown primary, 750, then 625, then 500 mg/m^2 weekly
  Response to RECIST: Partial Response
Patient 015, cancer of unknown primary, CT scan 9th January 2015
  Reduction in tumour size: ~58%
Patient 015, cancer of unknown primary, following Cycle 1
  Symptomatic benefit: the oedema and ascites had gone
[6]
  Disease response duration: ≥ 20 months
  PFS: ≥ 24 months
Patient 017, lung cancer
  Disease response duration: 3 months
  PFS: 10 months
  Symptomatic benefit: improvement in hoarse voice and dysphagia
Patient 017, lung cancer (adenocarcinoma), 750, then 625 mg/m^2 weekly
  Response to RECIST: Partial Response
Patient 018, lung cancer (squamous cell), 625 mg/m^2 weekly
  Response to RECIST: Stable Disease
Patient 018, lung cancer, 625 mg/m^2 weekly
  Disease response duration: 4 months
[7]
  Response duration according to GCIG criteria: 9 months
  Response duration according to RECIST: 3 months
  Symptomatic benefit: significant reduction in abdominal ascites
Patient 021, fallopian tube cancer, 625 mg/m^2 weekly
  Best overall response: Partial Response
Patient 021, fallopian tube cancer, end of Cycle 6
  CA125 reduction from baseline: 91%
Patient 021, fallopian tube cancer, end of Cycle 6, baseline 372
  CA125: 35
Patient 024, cancer of unknown primary, 675 mg/m^2 weekly
  Response to RECIST: Progressive Disease
[8]
  Disease response duration: 4 months
  Response to RECIST: Stable Disease
Patient 026, colorectal cancer
  Symptomatic benefit: Significant improvement in pain, with dramatic reduction in use of opioid analgesia
[9]
  Disease response duration: 4 months
  Response to RECIST: Stable Disease
Patient 027, ovarian cancer
  Disease response duration: 8 months
  Reduction in tumour volume: 23%
Patient 027, ovarian cancer, 725, then 675, then 625 mg/m^2 weekly
  Response to RECIST: Stable Disease
Patient 027, ovarian cancer, end of Cycle 6, from 188 at baseline
  CA125: 99
[10]
  Disease response duration: 4 months
  Response to RECIST: Stable Disease
[11]
  Disease response duration: 3 months
  Response to RECIST: Stable Disease
Patient 031, cholangiocarcinoma, 750 mg/m^2 weekly
  Response (end of Cycle 2 CT scan): Progressive Disease
[12]
  Disease response duration: 2 months
  Response to RECIST: Stable Disease
[13]
  Disease response duration: 3 months
  Response to RECIST: Stable Disease
Patient 036, renal carcinoma
  Disease response duration: 5 months
Patient 036, renal carcinoma, 825, then 750 mg/m^2 weekly
  Response to RECIST: Stable Disease
Patient 036, renal carcinoma, end of Cycle 4 CT scan
  Reduction in tumour volume: 7%
Patient 037, pancreatic cancer
  Disease response duration: 1 month
  PFS: 4 months
  Symptomatic benefit: Pain in abdomen and back had significantly improved
Patient 037, pancreatic cancer, 1,000, then 900 mg/m^2 weekly
  Response to RECIST: Partial Response
